From article PMC6080388 (Journal of Enzyme Inhibition and Medicinal Chemistry, 2017)
Where “and” joins values, the source holds several entries; their conditions need not be identical. Equal values may be shown once. Read-outs that look alike come from different tables or passages of the source.

Key:
[1] = biological target: T1, hyaluronidase from bovine testes Type I-S (Bos taurus, UniProt Q2YDK3); assay: Hyaluronidase inhibition test (turbidimetric); format: biochemical; details: means ± standard deviation; read-out: HYAL IC50 ± SD
T1 sequence (Q2YDK3 36-553): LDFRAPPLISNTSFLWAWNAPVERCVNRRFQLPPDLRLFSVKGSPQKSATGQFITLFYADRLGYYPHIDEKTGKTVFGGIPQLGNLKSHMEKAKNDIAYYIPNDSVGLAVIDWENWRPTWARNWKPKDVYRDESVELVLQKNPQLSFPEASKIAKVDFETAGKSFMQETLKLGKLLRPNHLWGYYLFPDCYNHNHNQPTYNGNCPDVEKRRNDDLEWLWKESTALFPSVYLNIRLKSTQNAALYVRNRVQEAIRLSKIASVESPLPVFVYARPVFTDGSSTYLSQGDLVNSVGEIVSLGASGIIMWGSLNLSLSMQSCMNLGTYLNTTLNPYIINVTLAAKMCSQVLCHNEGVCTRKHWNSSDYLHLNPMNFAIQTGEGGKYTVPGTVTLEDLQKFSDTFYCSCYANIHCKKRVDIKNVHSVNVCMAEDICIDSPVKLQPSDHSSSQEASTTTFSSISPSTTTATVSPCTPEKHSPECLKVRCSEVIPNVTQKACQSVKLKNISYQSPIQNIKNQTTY
Description: The inhibition study of hyaluronidase was carried out by turbidimetric method adapted to the 96-well plates and described previously by Michel et al[32] ^, [33]. […] Mixture was incubated in the dark at 37 °C for 10 min. Then, 40 µl of hyaluronic acid solution (0.03%, Sigma Aldrich, Steinheim, Germany) in monosodium phosphate buffer (pH 5.35) was added to the wells and the plate was incubated in the dark at 37 °C for 45 min. At the end, 300 µl of bovine serum albumin solution (0.1%, Serva) in sodium acetate buffer (pH 3.75) was added to the wells and incubated in the room temperature for 10 min. The changes in turbidity were measured at 600 nm by a microplate reader (BioTek, Winooski, VT). The assay was run out in three experiments in triplicate to calculate IC50 values. Heparin (WZF, Polfa) was used as a positive control.
The inhibition of hyaluronidase by the tested compound was calculated following the equation: % inhibition=100x1-AHA-AAN/AHA-AHYAL where AHA − absorbance of solution without the enzyme (positive control),
AHYAL − absorbance of solution without the tested compound (negative control), AAN − absorbance of solution with the tested compound.

[2] = biological target: T2, AChE (EC 3.1.1.7, from Electrophorus electricus) (Electrophorus electricus, UniProt O42275); assay: biochemical; format: biochemical; details: for Selectivity for AChE: IC50(BuChE)/IC50(AChE)
T2 construct: purchased Sigma Aldrich (Steinheim, Germany)
T2 sequence (O42275 24-633): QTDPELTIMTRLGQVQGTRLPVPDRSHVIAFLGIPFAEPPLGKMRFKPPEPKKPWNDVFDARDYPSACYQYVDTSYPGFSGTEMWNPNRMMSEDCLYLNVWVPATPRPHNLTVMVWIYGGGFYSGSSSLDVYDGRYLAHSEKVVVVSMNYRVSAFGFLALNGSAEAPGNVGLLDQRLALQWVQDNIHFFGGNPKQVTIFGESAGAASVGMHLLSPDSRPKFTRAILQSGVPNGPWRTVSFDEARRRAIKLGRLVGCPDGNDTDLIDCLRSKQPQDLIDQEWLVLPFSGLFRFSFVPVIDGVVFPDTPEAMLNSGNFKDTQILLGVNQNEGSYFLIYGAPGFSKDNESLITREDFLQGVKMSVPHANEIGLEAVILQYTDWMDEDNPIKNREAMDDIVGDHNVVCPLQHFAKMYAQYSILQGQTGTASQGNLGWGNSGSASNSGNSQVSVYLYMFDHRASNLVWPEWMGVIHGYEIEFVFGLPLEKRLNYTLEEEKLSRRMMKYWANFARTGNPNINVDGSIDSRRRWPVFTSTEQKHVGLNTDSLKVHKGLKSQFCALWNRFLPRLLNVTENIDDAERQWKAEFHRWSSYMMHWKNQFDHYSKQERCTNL
Description: (§2) The inhibitory activities of the tested compounds towards AChE and BuChE were performed using Ellman’s method[25]. All reagents including AChE (EC 3.1.1.7, from Electrophorus electricus), BuChE (EC 3.1.1.8, from equin serum), DTNB (Ellman’s reagent), and acetylthiocholine iodide (ATC iodide) were purchased from Sigma Aldrich (Steinheim, Germany). Analysis was executed in following procedure: AChE and BuChE solution was made by dissolving enzymes in phosphate buffer (pH 7.4) to obtain 2 and 4 U/ml, respectively. […] The study was performed in triplicate and recorded in 96-well microplates, using multifunctional microplate reader. The assay medium contained DTNB solution 0.4 mg/ml (76 µl), AChE (10 µl), various concentration of the examined compounds (14 µl) and ATC iodine solution (40 µl) at the concentration of 1 mM. For the reference value, 14 µl of the test compound solutions were replaced by phosphate buffer (pH 7.4). […] Inhibition activity was expressed as a percentage of the activity of the tested compound relative to the reference control.

[3] = biological target: T3, BuChE (EC 3.1.1.8, from equin serum) (Equus caballus, UniProt P81908); assay: biochemical; format: biochemical; details: for IC50: means ± SEM of three independent experiments, equine serum BuChE; for BuChE inhibitory activity, fold higher than donepezil: in comparison to donepezil
T3 construct: BuChE (EC 3.1.1.8, from equin serum); purchased Sigma Aldrich (Steinheim, Germany); host or cells: equine serum
T3 sequence (P81908 whole entry): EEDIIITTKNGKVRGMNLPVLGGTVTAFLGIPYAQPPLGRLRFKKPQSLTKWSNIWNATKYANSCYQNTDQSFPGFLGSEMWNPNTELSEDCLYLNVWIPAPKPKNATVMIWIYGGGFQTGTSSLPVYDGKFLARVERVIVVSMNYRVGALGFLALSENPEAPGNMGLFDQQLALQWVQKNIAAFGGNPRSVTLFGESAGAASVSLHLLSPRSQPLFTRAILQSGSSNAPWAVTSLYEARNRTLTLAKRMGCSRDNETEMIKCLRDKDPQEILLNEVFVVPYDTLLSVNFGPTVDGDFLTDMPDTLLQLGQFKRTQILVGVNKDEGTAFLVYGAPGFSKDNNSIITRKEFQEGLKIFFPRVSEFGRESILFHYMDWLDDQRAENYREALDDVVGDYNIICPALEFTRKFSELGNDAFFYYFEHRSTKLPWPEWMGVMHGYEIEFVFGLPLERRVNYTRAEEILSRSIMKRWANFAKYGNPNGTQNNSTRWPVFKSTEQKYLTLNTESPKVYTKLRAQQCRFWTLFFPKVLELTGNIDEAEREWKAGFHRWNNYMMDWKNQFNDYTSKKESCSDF
Description: as §2

[4] = biological target: T4, EqBuChE (Equus caballus, UniProt P81908); assay: Kinetic characterisation of BuChE inhibition (Lineweaver–Burk); format: biochemical; details: for Vmax: BuChE
T4 construct: BuChE (EC 3.1.1.8, from equin serum); purchased Sigma Aldrich (Steinheim, Germany); host or cells: equine serum
T4 sequence (P81908 whole entry): as above
Description: Kinetic analysis was performed using Ellman’s test[4] ^, [25]. […]. Total volume of tested medium (140 µl) comprised: DTNB solution (0.4 mg/ml), BuChE solution (4 U/ml), solution of the examined compound and different concentrations of the substrate ATC iodide. Absorbance was detected at 412 nm at room temperature after 8 min. Results were calculated and presented on the Lineweaver–Burk plot. Received KM and Vmax values allowed to define the type of enzyme inhibition.

[5] = MTT cytotoxicity assay on ATCC CCL-185 cells; format: cell-based, human; details: human, ATCC CCL-185 cells (human lung carcinoma epithelial cells), control as 100%, read-out: cell viability
Description: (§1) In the experiment, ATCC CCL-185 cell line was used (Epithelial cells from human lungs, carcinoma). Cells were seeded on 96-wells plate (F12 Thermo Fisher medium, Waltham MA) and incubated for 24 h. Then the cells were treated with various concentrations (0.22, 1.11, 2.22, 22.22, and 222.20 µM) of the tested compound dissolved in methanol and incubated for 48 h. Final methanol concentration in each well was 1 µl per 100 µl of medium. As a control, the same medium as for cells breeding was used with addition of 1 µl methanol and without studied compound. As a positive control pure methanol was used. After the time of incubation, procedure was carried out according to Vybrant MTT Cell Proliferation Assay Kit: cells were labelled with 10 µl of the 12 mM MTT stock solution, incubated at 37 °C for 4 h, all medium but 25 µl was removed from the wells, 50 µl of DMSO was added, incubated for 10 min at 37 °C and the absorbance at 540 nm was measured.

[6] = tested on: ATCC CCL-185 cell line (Epithelial cells from human lungs, carcinoma); assay: MTT cytotoxicity assay on ATCC CCL-185 cells; format: cell-based; details: 22.22 µM; 48 h
Description: as §1

[7] = biological target: T5, EeAChE (Electrophorus electricus, UniProt O42275); format: biochemical; details: for Vmax: AChE
T5 construct: purchased Sigma Aldrich (Steinheim, Germany)
T5 sequence (O42275 24-633): as the sequence (O42275 24-633) above
Description: The kinetic characterisation was evaluated according to the Ellman’s method[4] ^, [25]. […]. The tested medium contained: DTNB solution (0.4 mg/ml), AChE solution (2 U/ml), solution of the examined compound and different concentrations of the substrate ACT iodide in a total volume of […]. Absorbance were detected at 412 nm at room temperature after 6 min. Received date were calculated and presented on the Lineweaver–Burk plot. Determinated the KM and Vmax values were used to define the type of enzyme inhibition.

[8] = biological target: T6, Aβ1–42 (Homo sapiens, UniProt P05067); assay: Aβ1–42 aggregation assay, Thioflavin T fluorescence; format: biochemical; details: Aβ1–42 12.58 μM, 24 h
T6 construct: final Aβ1–42 concentration – 12.58 μM
T6 sequence (P05067 672-713 limits assumed): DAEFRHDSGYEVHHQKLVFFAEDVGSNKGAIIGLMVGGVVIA
Description: The Aβ1–42 aggregation assay was established using the Thioflavin T fluorescence method[22] ^, [26] ^, [27]. Experiment was performed by incubating the peptides previously dissolved in DMSO at room temperature for 24 h (final Aβ1–42 concentration – 12.58 μM) with or without the tested compounds at the different concentrations (5, 10, 25, 50, and100 μM). After incubation all samples were diluted in PBS – phosphate buffer (pH 7.4) containing Thioflavin T (5 μM). Subsequently, after 5 min incubation with the dye, fluorescence signal was measured (excitation wavelength 446 nm, emission wavelength 490 nm) on a monochromator based multimode microplate reader (Synergy H1, Bio-Tek, Winooski, VT), adapted for 96-well microtiter plates. Next the percent of inhibition on aggregation was calculated by the following expression: 100 – (IFi/IFo × 100). IFi and IFo were the fluorescence intensities obtained for absorbance in the presence and absence of inhibitors, respectively. The background values were deducted in the calculations.

[9] = means ± SEM of three independent experiments, electric eel AChE, read-out: AChE IC50 ± SEM

Question: For Heparin, which IC50 [1] is on record?
Answer: 56400 ± 780 nM

Question: For `Cl.O=C(NCCNc1c2c(nc3ccccc13)CCC2)c1cnc(Cl)c(Cl)c1` [3a, 5,6-Dichloro-N-[2-(2,3-dihydro-1H-cyclopenta[b]quinolin-9-ylamino)-ethyl]-nicotinamide hydrochloride], which “Selectivity for AChE” value [2] is on record?
Answer: 28.593

Question: What about the IC50 [2, 9] of the same compound?
Answer: 65 ± 7 nM

Question: What about the “Selectivity for BuChE” value ([3]; IC50(AChE)/IC50(BuChE)) of the same compound?
Answer: 0.035

Question: And the IC50 [3]?
Answer: 1860 ± 83 nM

Question: For `Cl.O=C(NCCCCNc1c2c(nc3ccccc13)CCC2)c1cnc(Cl)c(Cl)c1` [3c, 5,6-Dichloro-N-[4-(2,3-dihydro-1H-cyclopenta[b]quinolin-9-ylamino)-butyl]-nicotinamide hydrochloride], which “Selectivity for AChE” value [2] is on record?
Answer: 1.071

Question: And the IC50 [2, 9]?
Answer: 744 ± 46 nM

Question: And the “Selectivity for BuChE” value ([3]; IC50(AChE)/IC50(BuChE))?
Answer: 0.934

Question: What about the IC50 [3] of the same compound?
Answer: 797 ± 86 nM

Question: With `Cl.O=C(NCCCCCCNc1c2c(nc3ccccc13)CCC2)c1cnc(Cl)c(Cl)c1` [3e, 5,6-Dichloro-N-[6-(2,3-dihydro-1H-cyclopenta[b]quinolin-9-ylamino)-hexyl]-nicotinamide hydrochloride] as the compound, how does the “Selectivity for AChE” value [2] read?
Answer: 2.380

Question: And the IC50 [2, 9]?
Answer: 53 ± 5 nM

Question: What about the “Selectivity for BuChE” value ([3]; IC50(AChE)/IC50(BuChE)) of the same compound?
Answer: 0.420

Question: What about the IC50 [3] of the same compound?
Answer: 127 ± 14 nM

Question: Which “Selectivity for AChE” value [2] does the source give for `Cl.O=C(NCCCCCCCCCNc1c2c(nc3ccccc13)CCC2)c1cnc(Cl)c(Cl)c1` [3h, 5,6-Dichloro-N-[9-(2,3-dihydro-1H-cyclopenta[b]quinolin-9-ylamino)-nonyl]-nicotinamide hydrochloride] here?
Answer: 0.529

Question: And the IC50 [2, 9]?
Answer: 155 ± 45 nM

Question: What about the “Selectivity for BuChE” value ([3]; IC50(AChE)/IC50(BuChE)) of the same compound?
Answer: 1.889

Question: What about the IC50 [3] of the same compound?
Answer: 82 ± 30 nM

Question: Which “Selectivity for AChE” value [2] does the source give for `Cl.O=C(NCCCCCCCNc1c2c(nc3ccccc13)CCC2)c1cnc(Cl)c(Cl)c1` [3f, 5,6-Dichloro-N-[7-(2,3-dihydro-1H-cyclopenta[b]quinolin-9-ylamino)-heptyl]-nicotinamide hydrochloride] here?
Answer: 0.569

Question: And the IC50 [2, 9]?
Answer: 125 ± 21 nM

Question: And the “Selectivity for BuChE” value ([3]; IC50(AChE)/IC50(BuChE))?
Answer: 1.756

Question: What about the “BuChE inhibitory activity, fold higher than donepezil” value [3] of the same compound?
Answer: 167 fold

Question: What about the IC50 [3] of the same compound?
Answer: 71 ± 12 nM

Question: For `Cl.O=C(NCCCCCCCCNc1c2c(nc3ccccc13)CCC2)c1cnc(Cl)c(Cl)c1` [3g, 5,6-Dichloro-N-[8-(2,3-dihydro-1H-cyclopenta[b]quinolin-9-ylamino)-octyl]-nicotinamide hydrochloride], which “Selectivity for AChE” value [2] is on record?
Answer: 0.711

Question: And the IC50 [2, 9]?
Answer: 152 ± 45 nM

Question: What about the “Selectivity for BuChE” value ([3]; IC50(AChE)/IC50(BuChE)) of the same compound?
Answer: 1.407

Question: What about the IC50 [3] of the same compound?
Answer: 108 ± 6 nM

Question: With `Cl.O=C(NCCCCCNc1c2c(nc3ccccc13)CCC2)c1cnc(Cl)c(Cl)c1` [3d, 5,6-Dichloro-N-[5-(2,3-dihydro-1H-cyclopenta[b]quinolin-9-ylamino)-pentyl]-nicotinamide hydrochloride] as the compound, how does the “Selectivity for AChE” value [2] read?
Answer: 1.615

Question: And the IC50 [2, 9]?
Answer: 285 ± 38 nM

Question: And the “Selectivity for BuChE” value ([3]; IC50(AChE)/IC50(BuChE))?
Answer: 0.619

Question: And the IC50 [3]?
Answer: 460 ± 38 nM

Question: Which Vmax ([4]; inhibitor 3b 0.22 µM) does the source give for `Cl.O=C(NCCCNc1c2c(nc3ccccc13)CCC2)c1cnc(Cl)c(Cl)c1` [3b, 5,6-Dichloro-N-[3-(2,3-dihydro-1H-cyclopenta[b]quinolin-9-ylamino)-propyl]-nicotinamide hydrochloride] here?
Answer: 3333.3 A/min

Question: What about the Vmax ([4]; inhibitor 3b 0.56 µM) of the same compound?
Answer: 1666.7 A/min

Question: And the “type of EqBuChE inhibition” value ([4]; Lineweaver–Burk plot)?
Answer: mixed type of inhibition

Question: What about the viability at 48 h, 222.2 µM ([5]; 222.20 µM) of the same compound?
Answer: ~7%

Question: And the viability at 48 h ([5]; concentrations from 0.22 to 2.22 µM)?
Answer: ~70%

Question: And the cell viability [6]?
Answer: suddenly decreased

Question: And the IC50 [2]?
Answer: 52 ± 2 nM

Question: And the “Selectivity for AChE” value [2]?
Answer: 3.030

Question: What about the “AChE inhibitory potency, times higher than donepezil” value ([2]; in comparison to donepezil) of the same compound?
Answer: ~2 times

Question: What about the Vmax ([7]; inhibitor 3b 0.11 µM) of the same compound?
Answer: 312.50 A/min

Question: And the Vmax ([7]; inhibitor 3b 1.11 µM)?
Answer: 1666.67 A/min

Question: What about the “type of EeAChE inhibition” value ([7]; Lineweaver–Burk plot) of the same compound?
Answer: mixed type of inhibition

Question: And the “Selectivity for BuChE” value [3]?
Answer: 0.330

Question: What about the “BuChE inhibitory activity, fold higher than donepezil” value [3] of the same compound?
Answer: 75 fold

Question: What about the IC50 [3] of the same compound?
Answer: 158 ± 29 nM

Question: And the “Aβ aggregation (%)” value ([8]; 3b 5 µM)?
Answer: 74.31%

Question: And the “Inhibition of Aβ aggregation (%)” value ([8]; 3b 5 µM)?
Answer: 25.7% and 25.69%

Question: What about the “Aβ aggregation (%)” value ([8]; 3b 10 µM) of the same compound?
Answer: 74.23%

Question: What about the “Inhibition of Aβ aggregation (%)” value ([8]; 3b 10 µM) of the same compound?
Answer: 25.77%

Question: And the “Aβ aggregation (%)” value ([8]; 3b 25 µM)?
Answer: 51.82%

Question: What about the “Inhibition of Aβ aggregation (%)” value ([8]; 3b 25 µM) of the same compound?
Answer: 48.18%

Question: What about the “Aβ aggregation (%)” value ([8]; 3b 50 µM) of the same compound?
Answer: 45.70%

Question: And the “Inhibition of Aβ aggregation (%)” value ([8]; 3b 50 µM)?
Answer: 54.30%

Question: And the “Aβ aggregation (%)” value ([8]; 3b 100 µM)?
Answer: 7.22%

Question: And the “Inhibition of Aβ aggregation (%)” value ([8]; 3b 100 µM)?
Answer: 92.8% and 92.78%
